Measurements: ChEMBL document CHEMBL6083240, “Design, synthesis and biological evaluation of arylpropylamine derivatives as potential multi-target antidepressants” (Bioorg Med Chem, 2024)
Calls of active or inactive are those of the source. The rule behind the calls is not given here.

How the values were obtained:
Transporter = Transporter (Rattus norvegicus, UniProt Q63380); assay: Displacement of [3H]-nisoxetine from NET in rat hippocampal membrane incubated for 8 hrs by liquid scintillation counting method; type: cell membranes, Hippocampus
Transporter, sequence (Q63380 whole entry): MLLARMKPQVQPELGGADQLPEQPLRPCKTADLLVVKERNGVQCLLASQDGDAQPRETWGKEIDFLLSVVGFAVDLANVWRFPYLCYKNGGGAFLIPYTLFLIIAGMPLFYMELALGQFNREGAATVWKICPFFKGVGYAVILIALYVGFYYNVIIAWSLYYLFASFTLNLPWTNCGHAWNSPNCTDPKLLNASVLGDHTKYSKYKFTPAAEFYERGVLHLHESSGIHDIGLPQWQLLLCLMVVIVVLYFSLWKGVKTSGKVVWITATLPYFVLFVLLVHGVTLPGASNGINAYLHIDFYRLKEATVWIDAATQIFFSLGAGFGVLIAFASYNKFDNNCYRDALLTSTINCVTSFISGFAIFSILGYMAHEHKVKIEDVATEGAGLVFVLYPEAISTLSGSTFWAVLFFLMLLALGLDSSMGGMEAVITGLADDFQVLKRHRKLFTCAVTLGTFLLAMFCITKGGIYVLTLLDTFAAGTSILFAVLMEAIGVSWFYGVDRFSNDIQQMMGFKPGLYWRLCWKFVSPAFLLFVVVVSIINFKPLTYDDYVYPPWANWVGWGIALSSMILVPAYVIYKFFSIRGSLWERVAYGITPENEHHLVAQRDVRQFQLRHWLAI

[1] = molecular target: T1, 5-hydroxytryptamine receptor 2C (Rattus norvegicus, UniProt P08909); assay: Displacement of [3H]-mesulergine from 5-HT2C in rat cerebral cortex incubated for 15 mins by liquid scintillation counting method; type: tissue-based
T1 sequence (P08909 whole entry): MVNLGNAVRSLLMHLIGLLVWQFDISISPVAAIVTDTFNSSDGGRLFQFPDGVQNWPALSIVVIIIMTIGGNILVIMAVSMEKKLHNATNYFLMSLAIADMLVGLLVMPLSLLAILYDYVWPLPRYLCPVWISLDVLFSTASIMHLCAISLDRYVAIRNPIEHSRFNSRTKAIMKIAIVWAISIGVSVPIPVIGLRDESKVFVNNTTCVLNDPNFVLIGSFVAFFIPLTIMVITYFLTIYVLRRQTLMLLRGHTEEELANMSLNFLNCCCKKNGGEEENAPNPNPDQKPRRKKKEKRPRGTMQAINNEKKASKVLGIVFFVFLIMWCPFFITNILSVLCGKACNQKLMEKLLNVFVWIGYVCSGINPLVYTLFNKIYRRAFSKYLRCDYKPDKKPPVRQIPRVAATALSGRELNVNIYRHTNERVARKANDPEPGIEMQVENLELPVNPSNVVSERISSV

[2] = molecular target: T2, Alpha-1A adrenergic receptor (Rattus norvegicus, UniProt P43140); assay: Displacement of [3H]-prazosin from adrenergic alpha-1 receptor in rat cerebral cortex incubated for 60 mins by liquid scintillation counting method; type: toxicity, tissue-based
T2 sequence (P43140 whole entry): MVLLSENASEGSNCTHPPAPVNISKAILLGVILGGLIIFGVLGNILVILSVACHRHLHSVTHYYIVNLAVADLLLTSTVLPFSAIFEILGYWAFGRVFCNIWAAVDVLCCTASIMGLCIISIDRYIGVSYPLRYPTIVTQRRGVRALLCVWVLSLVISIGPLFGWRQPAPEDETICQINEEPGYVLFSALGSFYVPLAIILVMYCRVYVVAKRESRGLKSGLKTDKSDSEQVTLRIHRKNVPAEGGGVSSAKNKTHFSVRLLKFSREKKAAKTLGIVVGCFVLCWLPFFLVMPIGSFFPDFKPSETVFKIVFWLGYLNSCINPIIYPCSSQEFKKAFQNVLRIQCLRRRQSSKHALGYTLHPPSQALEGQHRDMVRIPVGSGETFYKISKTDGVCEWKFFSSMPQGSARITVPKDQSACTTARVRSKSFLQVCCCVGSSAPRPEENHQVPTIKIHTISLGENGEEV

histamine H1 receptor = assay: Displacement of [3H]-pyrilamine from H1 receptor in guinea pig cerebellum membrane incubated for 60 mins by liquid scintillation counting method; type: toxicity, cell membranes, Cavia porcellus; details: probe [3H]-pyrilamine
[3] = molecular target: Voltage-gated inwardly rectifying potassium channel KCNH2 (Homo sapiens, UniProt Q12809); assay: Inhibition of human ERG expressed in HEK293 cells by whole-cell patch clamp method; type: toxicity, cell-based
[4] = molecular target: Sodium-dependent serotonin transporter (Rattus norvegicus) (UniProt P31652); assay: Antagonist activity at rat cerebral cortex membrane SERT at 10 uM incubated for 10 mins in presence of [3H]5-HT relative to control; type: cell membranes; set-up: scale not given: the % may be the effect or the level left; details: filed as antagonist
Sodium-dependent serotonin transporter (Rattus norvegicus), sequence (P31652 whole entry): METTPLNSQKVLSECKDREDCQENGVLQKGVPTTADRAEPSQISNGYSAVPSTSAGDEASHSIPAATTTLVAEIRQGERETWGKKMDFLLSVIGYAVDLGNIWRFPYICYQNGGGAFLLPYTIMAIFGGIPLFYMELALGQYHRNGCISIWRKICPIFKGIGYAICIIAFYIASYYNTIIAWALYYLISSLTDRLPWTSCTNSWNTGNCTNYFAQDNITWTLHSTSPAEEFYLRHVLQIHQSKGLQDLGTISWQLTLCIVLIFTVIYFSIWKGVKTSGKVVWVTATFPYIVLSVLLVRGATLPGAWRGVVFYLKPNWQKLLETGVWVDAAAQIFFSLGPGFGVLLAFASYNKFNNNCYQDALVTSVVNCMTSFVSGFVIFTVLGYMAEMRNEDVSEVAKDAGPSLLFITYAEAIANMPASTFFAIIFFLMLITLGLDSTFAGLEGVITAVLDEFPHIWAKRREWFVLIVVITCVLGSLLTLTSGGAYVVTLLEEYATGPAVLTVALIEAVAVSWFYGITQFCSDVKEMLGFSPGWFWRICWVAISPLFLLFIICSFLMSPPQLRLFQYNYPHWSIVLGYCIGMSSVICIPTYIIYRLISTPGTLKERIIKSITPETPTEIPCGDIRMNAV

[5] = molecular target: Sodium-dependent serotonin transporter (Rattus norvegicus, UniProt P31652); assay: Antagonist activity at rat cerebral cortex membrane SERT incubated for 10 mins in presence of [3H]5-HT; type: cell membranes
Sodium-dependent serotonin transporter, sequence (P31652 whole entry): as above

[6] = molecular target: Transporter (Rattus norvegicus) (UniProt Q63380); assay: Agonist activity at rat cerebral cortex membrane NET at 10 uM incubated for 10 mins in presence of [3H]-NE relative to control; type: cell membranes
Transporter (Rattus norvegicus), sequence (Q63380 as listed by the source): as the sequence (Q63380 whole entry) above

[7] = molecular target: 5-hydroxytryptamine receptor 2A (Homo sapiens, UniProt P28223); assay: Antagonist activity at 5-HT2A in HEK293 cells at 10 uM incubated for 60 mins by FLIPR assay relative to control; type: cell-based; set-up: scale not given: the % may be the effect or the level left; details: filed as antagonist
5-hydroxytryptamine receptor 2A, sequence (P28223 whole entry): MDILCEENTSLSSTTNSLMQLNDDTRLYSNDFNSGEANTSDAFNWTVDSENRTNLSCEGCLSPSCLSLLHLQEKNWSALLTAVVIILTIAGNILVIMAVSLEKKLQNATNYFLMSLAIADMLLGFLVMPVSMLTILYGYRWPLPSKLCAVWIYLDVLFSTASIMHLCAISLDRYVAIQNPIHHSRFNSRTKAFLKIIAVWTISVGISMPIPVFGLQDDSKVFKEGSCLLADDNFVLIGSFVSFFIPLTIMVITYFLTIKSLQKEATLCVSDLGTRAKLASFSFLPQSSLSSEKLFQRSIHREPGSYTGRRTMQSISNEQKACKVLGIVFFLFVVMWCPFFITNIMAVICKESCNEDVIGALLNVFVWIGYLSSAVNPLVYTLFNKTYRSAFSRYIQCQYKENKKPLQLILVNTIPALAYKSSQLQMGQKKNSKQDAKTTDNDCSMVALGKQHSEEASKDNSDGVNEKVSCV

Mus musculus [8] = assay: Antidepressant activity in IG dosed Kunming mouse assessed as decrease in immobility time by measuring minimal effective dose by forced swimming test; type: functional
Mus musculus [9] = assay: Antidepressant activity in Kunming mouse chronic unpredictable mild stress model assessed as increase in sucrose preference at 0.5 to 6 mg/kg, IG measured after 1 week; type: functional, organism-based; details: dose 0.5-6 mg/kg, time 1.0 weeks
Mus musculus [10] = assay: Antidepressant activity in Kunming mouse chronic unpredictable mild stress model assessed as increase in sucrose preference at 4 mg/kg, IG measured after 2 weeks; type: functional, organism-based
[11] = molecular target: Sodium-dependent dopamine transporter (Homo sapiens, UniProt Q01959); assay: Binding affinity to DAT (unknown origin)
Sodium-dependent dopamine transporter, sequence (Q01959 whole entry): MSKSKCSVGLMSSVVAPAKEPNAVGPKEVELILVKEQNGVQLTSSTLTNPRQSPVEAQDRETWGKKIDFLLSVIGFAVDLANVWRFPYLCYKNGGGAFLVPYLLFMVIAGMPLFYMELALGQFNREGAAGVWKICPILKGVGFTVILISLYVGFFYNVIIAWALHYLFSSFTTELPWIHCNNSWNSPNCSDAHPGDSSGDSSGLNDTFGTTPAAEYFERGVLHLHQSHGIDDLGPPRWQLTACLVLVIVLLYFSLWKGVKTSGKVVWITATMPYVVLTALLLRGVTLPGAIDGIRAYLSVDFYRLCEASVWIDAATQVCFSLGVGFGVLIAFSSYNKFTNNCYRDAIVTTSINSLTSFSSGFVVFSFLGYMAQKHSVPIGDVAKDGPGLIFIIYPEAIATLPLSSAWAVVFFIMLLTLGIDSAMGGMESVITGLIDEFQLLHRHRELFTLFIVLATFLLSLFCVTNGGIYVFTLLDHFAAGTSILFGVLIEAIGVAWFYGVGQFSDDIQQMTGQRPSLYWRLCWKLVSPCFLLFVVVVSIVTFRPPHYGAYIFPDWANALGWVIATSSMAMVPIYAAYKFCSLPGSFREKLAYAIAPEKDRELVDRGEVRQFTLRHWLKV

[12] = molecular target: Alpha-2A adrenergic receptor (Homo sapiens, UniProt P08913); assay: Binding affinity to alpha-2 adrenergic receptor (unknown origin)
Alpha-2A adrenergic receptor, sequence (P08913 whole entry): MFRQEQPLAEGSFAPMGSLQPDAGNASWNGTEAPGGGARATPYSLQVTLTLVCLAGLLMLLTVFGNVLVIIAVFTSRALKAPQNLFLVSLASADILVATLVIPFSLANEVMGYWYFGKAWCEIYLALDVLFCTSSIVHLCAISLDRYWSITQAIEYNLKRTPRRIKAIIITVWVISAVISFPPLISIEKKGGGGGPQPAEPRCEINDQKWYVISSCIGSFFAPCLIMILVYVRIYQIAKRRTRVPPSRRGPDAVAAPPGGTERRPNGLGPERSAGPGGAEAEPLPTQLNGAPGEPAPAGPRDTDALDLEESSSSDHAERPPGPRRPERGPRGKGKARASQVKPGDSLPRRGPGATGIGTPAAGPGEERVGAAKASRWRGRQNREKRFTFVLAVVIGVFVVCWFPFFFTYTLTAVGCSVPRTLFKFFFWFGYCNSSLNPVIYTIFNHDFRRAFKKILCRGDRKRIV

Histamine H2 receptor = Histamine H2 receptor (Homo sapiens, UniProt P25021); assay: Binding affinity to H2 receptor (unknown origin)
Histamine H2 receptor, sequence (P25021 whole entry): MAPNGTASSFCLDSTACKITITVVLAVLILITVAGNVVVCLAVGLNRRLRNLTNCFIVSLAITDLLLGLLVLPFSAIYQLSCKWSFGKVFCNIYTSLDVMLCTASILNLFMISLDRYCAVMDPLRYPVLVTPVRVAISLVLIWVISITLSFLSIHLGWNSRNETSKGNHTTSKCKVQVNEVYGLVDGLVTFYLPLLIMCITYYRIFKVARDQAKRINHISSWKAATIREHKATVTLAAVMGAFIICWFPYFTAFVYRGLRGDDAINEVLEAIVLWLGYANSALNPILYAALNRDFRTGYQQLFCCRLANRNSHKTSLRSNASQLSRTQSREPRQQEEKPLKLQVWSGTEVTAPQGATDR

Histamine H4 receptor = Histamine H4 receptor (Homo sapiens, UniProt Q9H3N8); assay: Binding affinity to H4 receptor (unknown origin)
[13] = molecular target: Muscarinic acetylcholine receptor M1 (Homo sapiens, UniProt P11229); assay: Binding affinity to M1 receptor (unknown origin)
Muscarinic acetylcholine receptor M1, sequence (P11229 whole entry): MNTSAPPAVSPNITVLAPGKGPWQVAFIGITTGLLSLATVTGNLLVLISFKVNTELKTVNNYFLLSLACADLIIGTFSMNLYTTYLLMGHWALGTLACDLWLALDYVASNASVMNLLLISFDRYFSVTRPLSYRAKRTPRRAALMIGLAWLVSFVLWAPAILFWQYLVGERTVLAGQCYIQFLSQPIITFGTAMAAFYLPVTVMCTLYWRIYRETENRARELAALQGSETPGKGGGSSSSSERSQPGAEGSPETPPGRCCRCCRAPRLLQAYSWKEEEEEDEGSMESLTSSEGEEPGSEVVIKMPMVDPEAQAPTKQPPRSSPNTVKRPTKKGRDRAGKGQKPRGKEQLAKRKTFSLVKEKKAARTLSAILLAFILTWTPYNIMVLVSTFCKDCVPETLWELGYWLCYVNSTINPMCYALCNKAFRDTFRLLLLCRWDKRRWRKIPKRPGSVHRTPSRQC

[14] = molecular target: Muscarinic acetylcholine receptor M3 (Homo sapiens, UniProt P20309); assay: Binding affinity to M3 receptor (unknown origin)
[15] = molecular target: Muscarinic acetylcholine receptor M4 (Homo sapiens, UniProt P08173); assay: Binding affinity to M4 receptor (unknown origin)
[16] = molecular target: 5-hydroxytryptamine receptor 6 (Homo sapiens, UniProt P50406); assay: Binding affinity to 5-HT6 receptor (unknown origin)
5-hydroxytryptamine receptor 6, sequence (P50406 whole entry): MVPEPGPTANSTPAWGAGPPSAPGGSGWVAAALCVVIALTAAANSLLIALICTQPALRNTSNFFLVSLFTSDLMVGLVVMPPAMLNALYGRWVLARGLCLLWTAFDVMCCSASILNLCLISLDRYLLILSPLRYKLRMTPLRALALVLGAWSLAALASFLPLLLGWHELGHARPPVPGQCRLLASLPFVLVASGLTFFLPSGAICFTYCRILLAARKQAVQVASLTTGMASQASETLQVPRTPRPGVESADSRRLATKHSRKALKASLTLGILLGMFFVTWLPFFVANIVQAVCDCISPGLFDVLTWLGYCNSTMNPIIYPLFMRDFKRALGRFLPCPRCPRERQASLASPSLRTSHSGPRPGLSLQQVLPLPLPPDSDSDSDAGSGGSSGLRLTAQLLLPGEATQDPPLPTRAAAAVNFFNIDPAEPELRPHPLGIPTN

[17] = molecular target: Sigma non-opioid intracellular receptor 1 (Homo sapiens, UniProt Q99720); assay: Binding affinity to sigma 1 receptor (unknown origin)
Sigma non-opioid intracellular receptor 1, sequence (Q99720 whole entry): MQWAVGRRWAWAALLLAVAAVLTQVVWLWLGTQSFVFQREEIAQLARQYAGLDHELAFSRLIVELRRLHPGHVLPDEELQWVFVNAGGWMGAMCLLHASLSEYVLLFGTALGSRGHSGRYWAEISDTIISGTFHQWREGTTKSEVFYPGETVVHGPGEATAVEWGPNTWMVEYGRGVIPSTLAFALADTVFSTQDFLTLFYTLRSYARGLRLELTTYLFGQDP

[18] = molecular target: Glutamate [NMDA] receptor; assay: Binding affinity to NMDA receptor (unknown origin); type: protein-complex assay, Homo sapiens
[19] = Half-life in CD1 mouse at 15 mg/kg, po measured upto 24 hrs by LC-MS analysis; type: ADME, organism-based; details: in vivo
[20] = AUC(0 to t) in CD1 mouse at 2 mg/kg, iv measured upto 10 hrs by LC-MS analysis; type: ADME, organism-based; details: in vivo
[21] = AUC(0 to t) in CD1 mouse at 15 mg/kg, po measured upto 24 hrs by LC-MS analysis; type: ADME, organism-based; details: in vivo
[22] = Oral bioavailability in CD1 mouse at 15 mg/kg measured upto 24 hrs by LC-MS analysis; type: ADME, organism-based; details: in vivo

## CN(C)CC[C@@H](Oc1cccc2c1OCO2)c1ccc(F)cc1.O=C(O)C(=O)O
Transporter
  Ki: 2.3 nM
[1]
  Ki: 15.7 nM
[2]
  Ki: 1450 nM
Histamine H1 receptor
  Ki at 60 min: 1000 nM
[3]
  IC50: 1230 nM
[4]
  Activity: 99.7%
[5]
  IC50: 23.2 nM
[6]
  Activity: 5.6%
[7]
  Activity: 100%
Mus musculus [8]
  Activity: Dose-dependent-effect
Mus musculus [8]; po, read-out: MED
  minimal effective dose: 6.4 mg/kg
Mus musculus [9]
  Activity: inactive
Mus musculus [10]
  Activity: Active
[11]
  Ki: > 1000 nM
[12]
  Ki: > 1000 nM
Histamine H2 receptor
  Ki: > 1000 nM
Histamine H4 receptor
  Ki: > 1000 nM
[13]
  Ki: 640 nM
[14]
  Ki: > 1000 nM
[15]
  Ki: > 1000 nM
[16]
  Ki: > 1000 nM
[17]
  Ki: > 1000 nM
[18]
  Ki: > 1000 nM
[19]
  half-life: 108 min
[20]
  AUC(0-t) at 10 h: 304 ng·h/mL
[21]
  AUC(0-t) at 24 h: 462 ng·h/mL
[22]
  bioavailability: 20.3%
